Source: paper PMC9887155, “Kinetics of cone specific G-protein signaling in avian photoreceptor cells” (Frontiers in Molecular Neuroscience, 2023)
Entries after “also recorded” stand apart in the source; their conditions may differ. Ends that are not written are not given here.

Legend:
[1] = tested on: Gtα/Giα chimera (cone specific G protein α-subunit); assay: SPR interaction of LWO peptides with immobilized Gtα/Giα chimera; type: binding, European robin (Erithacus rubecula); conditions: for binding to Gtα/Giα (qualitative): immobilized Gtα/Giα, pH 7.4
Description: The peptides representing the cytoplasmic loops of LWO (Figure 1) were purchased from Genscript (Netherlands). Sequences of the peptides were deduced from genetic sequences of the European robin genome ([Dunn et al., 2021]). Two control peptides were ordered containing scrambled sequences of LWO2 and LWO3 assigned as LWO2-sc and LWO3-sc, respectively (Table 1). To the N-terminus of each peptide, a linker (CGAGA or CGAGAG) was added to allow for specific covalent coupling via cysteine. All peptides were ordered to a purity of >90% and contained no further N-terminal modifications. The C-terminus of peptides LWO-1-3 were amidated to simulate a continuation of the peptide chain, while LWO-4 was left unmodified to represent the opsin C-terminus. Quality control by LC–MS was performed by Genscript, and concentrations of the peptides were confirmed by UV–vis measurements.
We used a Gtα/Giα chimera to allow functional expression in E. coli according to previous attempts with bovine Gtα ([Skiba et al., 1996]). Cloning of the Gtα variants was performed by PCR mutagenesis of the plasmid described in [Görtemaker et al. (2022)]. In short, the construct contained an N-terminal 6x histidine tag and SUMO (Small Ubiquitin like MOdifier) protein (for metal affinity purification and subsequent tag cleavage) followed by the Gtα chimera. Truncation of 3 and 6 amino acids was performed using the primers 1 and 2 and 1 and 3, respectively. Sequences are available in Supplementary Table S1. The truncated variants were expressed following the same protocol as the full-length protein.
Purification of the Gtα/Giα chimera was performed as exactly described previously ([Görtemaker et al., 2022]). We used the same procedure for purification of the truncated Gtα variants, but we excluded the final size exclusion chromatography. Protein samples were analyzed by standard analytical techniques such as sodium dodecyl-sulfate polyacrylamide gel electrophoresis (SDS-PAGE) and protein quantification according to established procedures in the laboratory ([Elbers et al., 2018]).
Surface plasmon resonance (SPR) measurements were performed on a Biacore 3,000 (GE Healthcare now Cytiva). We followed the general operation principle that had been described before ([Koch, 2000]; [Komolov et al., 2009]). In the present work, we immobilized the non-myristoylated Gtα/Giα chimera or its truncated variants using CM5 sensor chips (GE Healthcare) for all applications exactly as previously described ([Görtemaker et al., 2022]). Immobilization densities of Gtα/Giα were 2.6–3.4 ng/mm^2. The truncated variants Gt-3AA and Gt-6AA bound to the senor chip surface at densities of 3.1–4.2 ng/mm^2. First, we studied the interaction processes by injection of peptides representing the cytoplasmic regions in LWO (Table 1). Two peptides made from the amino acids present in LWO2 and LWO3, but in scrambled order (Table 1), served as controls. We injected different concentrations (10, 50, 100, and 200 nM or alternatively: 10, 25, 45, 55, 75, and 100 nM) at a flow rate of either 25 μl/min or 50 μl/min in SPR running buffer (10 mM HEPES/NaOH, pH 7.4, 150 mM NaCl, 10 mM MgCl2, 0.005% Tween-20, 3.4 mM EDTA). In addition, we coated control surfaces with ubiquitin-like-protease 1 as previously described ([Görtemaker et al., 2022]). For kinetic investigation of LWO2 binding to Gtα/Giα, we injected different peptide concentrations in random order. Regeneration of the surface was performed with a basic-detergent cocktail adopted from [Andersson et al. (1999)] containing final concentrations of 12.5 mM of ethanolamine, Na2PO4, piperazine, and glycine set to a pH of 11.75, as well as containing 0.2% sodium dodecyl sulfate. Despite the relatively harsh conditions, regeneration was judged to be slightly incomplete. […] With the conditions used, reproducible data was still obtained. Sensorgrams were evaluated by nonlinear curve fitting applying the global fitting approach (BIAevaluation software 4.1, GE Healthcare). […]

Gtα/Giα chimera = assay: FRET interaction of dansylated peptides with Gtα/Giα in solution; type: binding, European robin (Erithacus rubecula); conditions: excitation 280 nm; for decrease of fluorescence emission in the presence of Gtα/Giα: FRET, dansylated peptide and Gtα/Giα each 16.7 μM, GDP 10 μM, incubated on ice in the dark 30 min, pH 7.4; for fluorescence emission maximum: dansylated peptide 16.7 μM, 80 mM Hepes pH 7.4, 40 mM KCl, 150 mM NaCl, 10 mM MgCl2
Description: Interaction of the Gtα/Giα chimera with peptide LWO2 and the control peptide LWO2-sc was tested by Förster resonance energy transfer (FRET) measurements. We designed an experiment using fluorescence excitation at 280 nm of endogenous Trp residues in Gtα/Giα and peptide and emission of Trp fluorescence at 334 nm that excited the fluorescence dye 5-Dimethylamino-1-naphthalinsulfonyl chloride (dansyl chloride). The emission spectrum of dansyl chloride was recorded between 400 and 550 nm. For this purpose, we coupled dansyl chloride to free amino groups in LWO2 and LWO2-sc. Peptides were solved in H20 bidest (1 mg/ml) and 66 μl of a peptide solution were mixed with 50 μl borat buffer (0.1 M, pH 9.5). Twenty-five μL dansyl chloride (1 mg/ml in acetone) were added and the solutions were incubated at room temperature for 5 h in darkness. Afterwards, we separated non-reacted dansyl chloride, non-reacted peptides and covalently labeled LWO2 or LWO2-sc by reversed phase liquid chromatography (HPLC) using a LiChrospher® 100 RP-18 (5 μm) column (Merck, Germany) in a Hitachi Primaide HPLC system. The column was equilibrated in 0.1% trifluoro-acetic acid (v/v) in H2O bidest. Separation was achieved by applying a gradient from 0.1% trifluoro-acetic acid (v/v) in H2O bidest to 100% acetonitrile with 0.1% trifluoro-acetic acid (v/v) in 55 min. Peaks were detected at 280 nm and the area was used to calculate the coupling yield that was at 84–97% for both peptides. FRET measurements employing the FRET pair intrinsic tryptophan and attached dansyl were performed with a fluorescence spectrometer from photon Technology International. The basic operation principle was essentially as described before ([Behnen et al., 2009]; [Scholten and Koch, 2011]) using the following modifications. Shortly before recording the spectrum, the dansylated LWO2 (or LWO2-sc) containing fraction of the HPLC elution was diluted in fluorescence buffer (80 mM Hepes pH 7.4, 40 mM KCl, 150 mM NaCl, 10 mM MgCl2) at a final concentration of 16.7 μM. After adding the G protein, the mixtures were incubated on ice in the dark for 30 min. During the measurements with the Gtα/Giα, it was present in GDP-bound conformation ([GDP] = 10 μM). The excitation wavelength was set to 280 nm and the emission spectrum was recorded from 400 to 550 nm. Recording and analysis of the data was performed using Photon Technology International software package FELIX32.

Substance: CGAGA-TAKFKKLRHPLNWI [LWO1, peptide representing a cytoplasmic loop of European robin long wavelength opsin]
- binding to Gtα/Giα (qualitative) ([1]; peptide 100 nM): did not indicate a binding process

Substance: CGAGAG-NRQFRNCILQLFGKKVDDGSEVSTSRTEVSSVSNSSGS [LWO4, peptide representing the opsin C-terminus of European robin LWO]
- binding to Gtα/Giα (qualitative) ([1]; peptide 100 nM): did not indicate a binding process

Substance: CGAGA-GSKSQRARAEQVETAQAKAEISVEK [LWO3-sc]
- binding to Gtα/Giα (qualitative) ([1]; peptide 100 nM): did not indicate a binding process

Substance: CGAGA-FRVKDGWINPGKFEVWCKF [LWO2-sc]
- binding to Gtα/Giα (qualitative) ([1]; peptide 100 nM): slight decrease in resonance units indicating no binding signal
- fluorescence emission of label-free peptide (control) (Gtα/Giα chimera; label-free peptide alone or with Gtα/Giα): No fluorescence emission was also observed

Substance: dansyl-LWO2-sc: LWO2-sc with dansyl chloride coupled to free amino groups (CGAGAFRVKDGWINPGKFEVWCKF; cysteine pairing not given here; also: dansyl coupled to free amino groups)
- decrease of fluorescence emission in the presence of Gtα/Giα (Gtα/Giα chimera): 9,000 relative fluorescence counts
- fluorescence emission maximum (Gtα/Giα chimera): 516 nm

Substance: CGAGAG-AIRAVAAQQKESESTQKAEKEVSR [LWO3, peptide representing the third cytoplasmic loop of European robin LWO]
- binding to Gtα/Giα (qualitative) ([1]; peptide 100 nM): slight decrease in RU and a kind of recovery phase; also recorded: did not detect any interaction
- positive response during subsequent buffer flow ([1]; peptide 100 nM, buffer flow after injection, decreased over time): ca. 10 RU
- binding to Gtα/Giα (qualitative), 200 nM ([1]; peptide 200 nM, Supplementary Figure S1): no specific binding process occurred

Substance: dansyl-LWO2: LWO2 with dansyl chloride coupled to free amino groups (CGAGAWERWFVVCKPFGNIKFDGK-NH2; cysteine pairing not given here; also: dansyl coupled to free amino groups)
- decrease of fluorescence emission in the presence of Gtα/Giα (Gtα/Giα chimera): 14,000 relative fluorescence counts
- fluorescence emission maximum (Gtα/Giα chimera): 510 nm
